According to publication PMC3804601, “Single Nucleotide Polymorphisms of Human STING Can Affect Innate Immune Response to Cyclic Dinucleotides” (PLoS ONE, 2013):

Columns and labels:
[1] = molecular target: T1, hSTING (stimulator of interferon genes) (Homo sapiens, UniProt Q86WV6); assay: IFN-β luciferase reporter in STING-transfected, digitonin-permeabilized HEK293T cells (vector control inactive); type: cell-based
T1 construct: gene STING1; hSTING cDNA with C-terminal Flag tag expressed in HEK293T cells

[2] = molecular target: T2, hSTING (stimulator of interferon genes) (Homo sapiens, UniProt Q86WV6, G230A/H232R); assay: isothermal titration calorimetry; DSF shift (+[…]°C); type: binding
T2 construct: gene STING1; C-terminal domain, residues 149-341, C-terminal 6×His tag (WT = R232)

[3] = molecular target: T3, hSTING (stimulator of interferon genes) (Homo sapiens, UniProt Q86WV6, H232R); assay: isothermal titration calorimetry; DSF shift (+[…]°C); type: binding
T3 construct: gene STING1; C-terminal domain, residues 149-341, C-terminal 6×His tag (WT = R232)
T3 sequence (Q86WV6 149-341 H232R): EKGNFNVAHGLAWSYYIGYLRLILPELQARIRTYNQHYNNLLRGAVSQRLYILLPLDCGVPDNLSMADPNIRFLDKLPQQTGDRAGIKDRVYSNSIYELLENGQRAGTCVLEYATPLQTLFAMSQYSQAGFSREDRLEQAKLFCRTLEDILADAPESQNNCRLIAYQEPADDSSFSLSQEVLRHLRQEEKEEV

T2 sequence (Q86WV6 149-341 G230A/H232R): as the sequence (Q86WV6 149-341 H232R) above, with G82A counted along it
T1 sequence (Q86WV6 whole entry): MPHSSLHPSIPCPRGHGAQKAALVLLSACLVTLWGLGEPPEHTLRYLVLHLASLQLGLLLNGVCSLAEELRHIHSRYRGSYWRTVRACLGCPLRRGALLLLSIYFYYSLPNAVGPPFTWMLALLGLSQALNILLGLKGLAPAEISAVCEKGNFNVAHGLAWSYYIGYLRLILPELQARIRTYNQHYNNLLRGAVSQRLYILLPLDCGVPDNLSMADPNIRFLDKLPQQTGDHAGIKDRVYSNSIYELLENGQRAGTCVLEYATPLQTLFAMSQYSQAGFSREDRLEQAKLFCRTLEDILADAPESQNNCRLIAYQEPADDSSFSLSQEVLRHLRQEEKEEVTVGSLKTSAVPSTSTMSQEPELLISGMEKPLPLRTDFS

**Q.** For Nc1ncnc2c1ncn2[C@@H]1O[C@@H]2COP(=O)(O)O[C@H]3[C@@H](O)[C@H](n4cnc5c(N)ncnc54)O[C@@H]3COP(=O)(O)O[C@H]2[C@H]1O [c-di-AMP], which “IFN-β luciferase reporter in STING-transfected, digitonin-permeabilized HEK293T” value [1] is on record?
**A.** 16.1 fold (ratio to unstimulated)

**Q.** Nc1nc2c(ncn2[C@@H]2O[C@@H]3CO[P@](=O)(O)O[C@H]4[C@@H](O)[C@H](n5cnc6c(=O)[nH]c(N)nc65)O[C@@H]4CO[P@](=O)(O)O[C@H]3[C@H]2O)c(=O)[nH]1 [c-di-GMP] was tested. Which Kd [2] did it give?
**A.** 1900 nM

**Q.** And the Kd [3]?
**A.** 3300 nM
